d = 2'-deoxy (DNA); r = 2'-OH (RNA)
What was measured:
Assay type in all cases: cell-based, human
JAG1 = test: Immunoblotting of JAG1 after siRNA transfection (silencing efficiency); settings: RDEB-FBs; for JAG1 expression levels (immunoblotting): 48 h after transfection, absence of TGF-β1, vs Scramble
Excerpt: Transfection of short interfering RNAs targeting Jagged 1. Two candidate short interfering RNA (siRNA) sequences complementary to different regions of the human JAG1 mRNA, si-JAG1-1 and si-JAG1-2, were chosen to be functionally evaluated in the context of transfection experiments. siJAG1-1 and siJAG1-2 sequences are indicated below: 5′-GAAUGUGAGGCCAAACCUU[dT][dT]-3′ (SEQ ID NO:1) (si-JAG1-1, cod. SASI_Hs01_00100441) and 5′-CCUGUAACAUAGCCCGAAA[dT][dT]-3′ (SEQ ID NO:2) (si-JAG1-2, cod. SASI_Hs01_00100442). Both siRNAs were purchased from Merck (Merck, Darmstadt, Germany). Lipofectamine 2000 (Thermo Fisher Scientific, Waltham, MA, USA) was used to transfect siRNAs, following manufacturer's protocol. After 48 h, the silencing efficiency of the two candidate siRNAs was assessed by immunoblotting (IB) (FIG. 2). […] Accordingly, si-JAG1-2, throughout the text indicated as si-JAG1, was selected for all downstream silencing experiments. The MISSION® siRNA Universal Negative Control #1 (Merck) was used as negative control for siRNA transfections.
(§1) Whole-cell lysates were obtained in radioimmunoprecipitation assay (RIPA) buffer (Sigma-Aldrich) supplemented with phosphatase- and protease inhibitors (Merck). Different amounts of protein lysates were run under reducing conditions by using 4-12% gradient precast gels (Thermo Fisher Scientific) or hand-casting polyacrylamide gels (4-8%), depending on the protein to be assayed. Amersham™ Protran® Premium nitrocellulose membranes (pore size 0.2 μm) (Merck) were immunoblotted with primary antibodies indicated in Table 3 and incubated with horseradish peroxidase-linked secondary antibodies.

α-SMA, TAGLN, CNN1, JAG1 = test: Immunoblotting of myofibroblast/fibrotic markers in RDEB fibroblasts; settings: RDEB-FBs vs Scramble, treated or not with TGF-β1
Excerpt: as §1
Detection was performed using Cytiva ECL™ Prime Western Blotting System (Merck) or SuperSignal West Femto (Thermo Fisher Scientific), depending on the protein to be assayed. Antibody against Notch1 (all forms; clone bTAN20) was obtained from the Developmental Studies Hybridoma Bank (DSHB) at the University of Iowa (DSHB, Iowa City, IA, USA). GAPDH (clone 14C10), Jagged1 (clone 28H8) and NOTCH1 intracellular domain (clone D3B8) were obtained from Cell Signaling (Cell Signaling Technology Inc., Beverly, MA, USA). Antibodies against TAGLN (clone #859112) and CNN1 (clone #836701) were from R&D Systems (R&D Systems, Inc. Minneapolis, MN, USA). Antibody against α-SMA (clone 1A4) was purchased from Sigma-Aldrich. Antibody against lamin B1 (LMNB1) was from Abcam (Cambridge, UK). […]

[1] = test system: primary fibroblasts from RDEB patients (RDEB-FBs); test: Collagen lattice contraction (CLC) assay; settings: RDEB-FBs vs Scramble siRNA, with and without TGF-β1
Procedure: RDEB-FBs (5×10^5 cells) were mixed in a collagen buffer and seeded into 12-well plates as previously described. After gelation, fibroblast-populated collagen lattices were detached from the wells and left floating. RDEB-FBs were treated with 20 μM of DAPT and PF-03804014 in DMEM containing 0.1% BSA, in the presence or absence of TGF-β1 at 2 ng/mL, as contraction booster. JAG1-silenced RDEB-FBs were embedded in collagen lattices 24 h after siRNA transfection. In both cases, images were acquired with ChemiDoc™ XRS+ System (Bio-Rad, Hercules, CA, USA) at the detachment of collagen lattices from the wells (time 0, TO) and after 48 h. Gel areas were measured by ImageJ software and photos at TO were used as references.

Row | Substance | JAG1 expression levels (immunoblotting) (JAG1) | JAG1 protein levels (immunoblotting) (JAG1; presence of TGF-β1 2 ng/mL for 24 h, compared with si-JAG1-1) | protein levels of α-SMA, CNN1, TAGLN, JAG1, NOTCH FL after JAG1 silencing (α-SMA, TAGLN, CNN1, JAG1) | cell ability to contract type I collagen matrix after JAG1 silencing [1]
1 | si-JAG1-1: short interfering RNA targeting human JAG1 mRNA, 5′-GAAUGUGAGGCCAAACCUU[dT][dT]-3′ (SEQ ID NO:1) (sense GAAUGUGAGGCCAAACCUUTT; sugars from the 5' end r19 d2, backbone and methylation of C not given here) | able to reduce JAG1 expression levels |  |  | 
2 | si-JAG1-2: short interfering RNA targeting human JAG1 mRNA, 5′-CCUGUAACAUAGCCCGAAA[dT][dT]-3′ (SEQ ID NO:2); indicated as si-JAG1 throughout (sense CCUGUAACAUAGCCCGAAATT; sugars from the 5' end r19 d2, backbone and methylation of C not given here) | able to reduce JAG1 expression levels | major reduction of JAG1 protein levels | significant reduction of α-SMA, CNN1, TAGLN, JAG1 and unprocessed NOTCH1 receptor | reduced
